Data as given in patent US6635641B2 (Agouron Pharmaceuticals, Inc., priority 2000, dated 2003).
pKi: −log10 of the molar value. Where a name gives a salt, the structure may show the parent alone. Read-outs that look alike come from different tables or passages of the source.

Biological target: T1, phosphorylated VEGF-R2Δ50 (FLVK-P) (Homo sapiens, UniProt P35968, DEL940-989/E990V)
T1 construct: VEGF-R2Δ50 contains residues 806-939 and 990-1171; made in house; host or cells: baculovirus/insect cells
Assay: VEGF-R2 coupled spectrophotometric assay, phosphorylated construct (FLVK-P)
Type: biochemical
Conditions: for inhibition at 1 µM: read-out: FLVK-P percent inhibition
Source text: A construct (VEGF-R2Δ50) of the cytosolic domain of human vascular endothelial growth factor receptor 2 (VEGF-R2) lacking the 50 central residues of the 68 residues of the kinase insert domain was expressed in a baculovirus/insect cell system. Of the 1356 residues of full-length VEGF-R2, VEGF-R2Δ50 contains residues 806-939 and 990-1171, and also one point mutation (E990V) within the kinase insert domain relative to wild-type VEGF-R2. See commonly assigned, co-pending U.S. patent application Ser. No. 09/390,326, filed Sep. 7, 1999, incorporated by reference herein, for discussion of VEGF constructs and expression systems. Autophosphorylation of the purified construct was performed by incubation of the enzyme at a concentration of 4 μM in the presence of 3 mM ATP and 40 mM MgCl2 in 100 mM Hepes, pH 7.5, containing 5% glycerol and 5 mM DTT, at 4° C. for 2 h. […] See Parast et al., Biochemistry, 37, 16788-16801 (1998).
The production of ADP from ATP that accompanies phosphoryl transfer was coupled to oxidation of NADH using phosphoenolpyruvate (PEP) and a system having pyruvate kinase (PK) and lactic dehydrogenase (LDH). The oxidation of NADH was monitored by following the decrease of absorbance at 340 nm (e340=6.22 cm^−1 mM^−1) using a Beckman DU 650 spectrophotometer. Assay conditions for phosphorylated VEGF-R2Δ50 (indicated as FLVK-P in the tables below) were the following: 1 mM PEP; 250 μM NADH; 50 units of LDH/mL; 20 units of PK/mL; 5 mM DTT; 5.1 mM poly(E4Y1); 1 mM ATP; and 25 mM MgCl2 in 200 mM Hepes, pH 7.5. Assay conditions for unphosphorylated VEGF-R2Δ50 (indicated as FLVK in the tables) were the following: 1 mM PEP; 250 μM NADH; 50 units of LDH/mL; 20 units of PK/mL; 5 mM DTT; 20 mM poly(E4Y1); 3 mM ATP; and 60 mM MgCl2 and 2 mM MnCl2 in 200 mM Hepes, pH 7.5. Assays were initiated with 5 to 40 nM of enzyme. Ki values were determined by measuring enzyme activity in the presence of varying concentrations of test compounds. The data were analyzed using Enzyme Kinetic and Kaleidagraph software.

T1 sequence (P35968 with tags, fused parts or gaps DEL940-989/E990V limits assumed): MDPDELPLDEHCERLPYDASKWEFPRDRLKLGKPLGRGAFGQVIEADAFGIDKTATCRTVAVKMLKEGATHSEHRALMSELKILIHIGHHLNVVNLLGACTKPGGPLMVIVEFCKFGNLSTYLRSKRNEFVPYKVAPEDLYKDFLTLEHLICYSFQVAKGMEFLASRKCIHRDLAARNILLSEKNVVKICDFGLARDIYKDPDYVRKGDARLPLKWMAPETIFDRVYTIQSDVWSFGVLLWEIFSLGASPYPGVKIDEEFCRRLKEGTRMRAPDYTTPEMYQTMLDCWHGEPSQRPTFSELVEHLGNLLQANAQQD

Row | Compound | pKi | further results
1 | COc1cc(NC(=O)c2cccc(CSc3nc(N)n[nH]3)c2)cc(OC)c1OC [Example A-2, N-(3,4,5-Trimethoxyphenyl)-3-[(5-amino-2H-[1,2,4]triazol-3-yl)sulfanylmethy]benzamide] |  | Ki (μM): 100 µM
2 | Cc1cc(NC(=O)c2cccc(CSc3nc(N)n[nH]3)c2)ccc1C(C)C [Example A-4, N-(4-Isopropyl-3-methylphenyl)-3-[(5-amino-2H-[1,2,4]triazol-3-yl)sulfanylmethyl]benzamide] | 4.89 | 
3 | Cc1cc(NC(=O)c2cccc(CSc3ncnc4[nH]ncc34)c2)no1 [Example B-4, N-(5-Methylisoxazol-3-yl)-3-[(1H-pyrazolo[3,4-d]pyrimidin-4-yl)sulfanylmethyl]benzamide] | 4.46 | 
4 | O=C(NCc1ccncc1)c1cccc(CSc2ncnc3[nH]ncc23)c1 [Example B-5, N-(Pyridin-4-yl)methyl-3-[(1H-pyrazolo[3,4-d]pyrimidin-4-yl)sulfanylmethyl]benzamide] | 4.96 | 
5 | CC(C)c1ccc(NC(=O)c2cccc(CSc3ncnc4[nH]ncc34)c2)cc1 [Example B-19, 3-[(1H-Pyrazolo[3,4-d]pyrimidin-4-yl)sulfanylmethyl]-N(4-isopropylphenyl)-benzamide] |  | inhibition at 1 µM: 42%
6 | O=C(Nc1cccc(OC(F)(F)F)c1)c1cccc(CSc2ncnc3[nH]ncc23)c1 [Example B-20] | 7.59 | 
7 | Cc1cc(C)cc(NC(=O)c2cccc(CSc3ncnc4[nH]ncc34)c2)c1 [Example B-21, 3-[(1H-Pyrazolo[3,4-d]pyrimidin-4-yl)sulfanylmethyl]-N(3,5-dimethylphenyl)-benzamide] | 6.68 | 
8 | CC(O)c1cccc(NC(=O)c2cccc(CSc3ncnc4[nH]ncc34)c2)c1 (stereo not drawn) [Example B-22] |  | inhibition at 1 µM: 32%
9 | CN(C)c1ccc(NC(=O)c2cccc(CSc3ncnc4[nH]ncc34)c2)cc1 [Example B-23, 3-[(1H-Pyrazolo[3,4-d]pyrimidin-4-yl)sulfanylmethyl]-N(4-dimethylaminophenyl)-benzamide] |  | inhibition at 1 µM: 17%
10 | O=C(Nc1cccc(S(=O)(=O)C(F)(F)F)c1)c1cccc(CSc2ncnc3[nH]ncc23)c1 [Example B-24, 3-[(1H-Pyrazolo[3,4-d]pyrimidin-4-yl)sulfanylmethyl]-N(3-trifluoromethylsulfonylphenyl)-benzamide] | 7.43 | 
11 | CN(C)c1cccc(NC(=O)c2cccc(CSc3ncnc4[nH]ncc34)c2)c1 [Example B-25, 3-[(1H-Pyrazolo[3,4-d]pyrimidin-4-yl)sulfanylmethyl]-N(3-dimethylaminophenyl)-benzamide] |  | inhibition at 1 µM: 26%
12 | Cc1ccc2cc(NC(=O)c3cccc(SCc4cccnc4)c3)ccc2n1 [Example D-3, N-(2-Methyl-quinolin-6-yl)-3-(pyridin-3-ylmethylsulfanyl)-benzamide dihydrochloride] | 6.88 | 
13 | COc1cc(/C=C/c2cc(CNc3cccc(C(=O)Nc4ccccc4)c3)n[nH]2)ccc1O [Example I-2, 3-[({5-[(E)-2-(4-hydroxy-3-methoxyphenyl)ethenyl]-1H-pyrazol-3-yl}methyl)amino]-N-phenylbenzamide] |  | inhibition at 1 µM: 16%
14 | COc1cc(NC(=O)c2cccc(OCc3cncc4ccccc34)c2)cc(OC)c1OC [Example K-2, 3-(Isoquinolin-4-yl)methoxy-N-(3,4,5-trimethoxyphenyl)benzamide hydrochloride] | 6.86 | 
15 | COc1cc(NC(=O)c2cccc(OCc3cccnc3)c2)cc(OC)c1OC [Example K-5, 3-(Pyridin-3-yl)methoxy-N-(3,4,5-trimethoxyphenyl)benzamide] | 5.90 | 

Further lines, with some results ahead:

Row | pKi | Compound | further results
16 | 5.74 | COc1ccc(NC(=O)c2cccc(CSc3ncnc4[nH]ncc34)c2)cn1 [Example B-2] | 
17 | 5.48 | COc1ccccc1CNC(=O)c1cccc(CSc2ncnc3[nH]ncc23)c1 [Example B-7, N-(2-Methoxybenzyl)-3-[(1H-pyrazolo[3,4-d]pyrimidin-4-yl)sulfanylmethyl]benzamide] | 
18 | 4.77 | COc1ccccc1NC(=O)c1cccc(CSc2ncnc3[nH]ncc23)c1 [Example B-9, N-(2-Methoxyphenyl)-3-[(1H-pyrazolo[3,4-d]pyrimidin-4-yl)sulfanylmethyl]benzamide] | 
